Measurements taken from publication PMC10762035, “Molecular basis of human trace amine-associated receptor 1 activation” (Nature Communications, 2024).
Residue numbers refer to the chain shown, from its start. Several values for one entry are separate records, joined by “and”; a condition that tells them apart may be missing. Equal values may be shown once. Read-outs that look alike come from different tables or passages of the source.

Legend:
Assay type in all cases: cell-based
hTA1 W264F = target: T1, hTA1 W264F (Homo sapiens, UniProt Q96RJ0, W264F); assay: GloSensor cAMP accumulation assay, W264F mutant; details: for ΔEmax values (each mutant value - WT average): W246F mutant (so in the source) minus WT average;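 for all read-outs here: cells transiently transfected with receptor plus GloSensor, luminescence read 30 min after agonist addition at room temperature, concentration-response curves fitted by log(agonist) vs response regression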
T1 construct: expressed in transfected cells; host or cells: HEK293T
T1 sequence (Q96RJ0 1-339 W264F): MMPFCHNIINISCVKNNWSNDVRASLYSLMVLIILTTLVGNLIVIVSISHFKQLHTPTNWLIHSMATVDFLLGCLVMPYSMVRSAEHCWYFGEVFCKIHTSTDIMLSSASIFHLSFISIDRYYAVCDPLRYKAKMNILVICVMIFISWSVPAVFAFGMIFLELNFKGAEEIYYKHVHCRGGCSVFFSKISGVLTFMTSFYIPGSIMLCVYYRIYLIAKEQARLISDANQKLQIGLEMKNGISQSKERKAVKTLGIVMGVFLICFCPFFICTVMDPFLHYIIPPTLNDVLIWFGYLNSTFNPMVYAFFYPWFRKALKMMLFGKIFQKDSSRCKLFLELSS

[1] = target: T2, β2AR-Nterm-hTA1-F112^3.41W (CryoEM Construct) (Homo sapiens, UniProt Q96RJ0, F112W); assay: GloSensor cAMP accumulation assay, cryoEM construct; details: for Normalized Luminescence Counts (N=2): log[Compound], M = -5, single replicates;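 for Normalized Luminescence Counts (N=2): normalized to the maximum response of β-PEA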;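 for all read-outs here: cells transiently co-transfected with the receptor construct and GloSensor cAMP biosensor, luminescence read after 30 min compound exposure at room temperature in the dark as cAMP accumulation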
T2 construct: FLAG (N); 10xHis (N); TEV protease site (N); expressed in transfected cells; host or cells: HEK293T

hTA1 C13S = target: T3, hTA1 C13S (Homo sapiens, UniProt Q96RJ0, C13S); assay: GloSensor cAMP accumulation assay, C13S mutant; details: for C13S - Normalized Luminescence Counts (N=2): log[Compound], single wells
T3 construct: expressed in transfected cells; host or cells: HEK293T
T3 sequence (Q96RJ0 1-339 C13S): T1 sequence (Q96RJ0 1-339 W264F) with C13S, F264W

hTA1 R83H = target: T4, hTA1 R83H (Homo sapiens, UniProt Q96RJ0, R83H); assay: GloSensor cAMP accumulation assay, R83H mutant; details: for Emax values, Mean: β-PEA = 100;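 for all read-outs here: cells transiently co-expressing hTA1 and a cAMP GloSensor, luminescence read 30 min after agonist addition at room temperature, concentration–response fitted by non-linear regression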
T4 construct: expressed in transfected cells; host or cells: HEK293T
T4 sequence (Q96RJ0 1-339 R83H): T1 sequence (Q96RJ0 1-339 W264F) with R83H, F264W

hTA1 C5S = target: T5, hTA1 C5S (Homo sapiens, UniProt Q96RJ0, C5S); assay: GloSensor cAMP accumulation assay, C5S mutant; details: for ΔEmax values (each mutant value - WT average), Mean / ΔpEC50 values (each mutant value - WT average), Mean: hTA1 C5S minus WT average; for C5S - Normalized Luminescence Counts (N=2): log[Compound], single wells
T5 construct: expressed in transfected cells; host or cells: HEK293T
T5 sequence (Q96RJ0 1-339 C5S): T1 sequence (Q96RJ0 1-339 W264F) with C5S, F264W

hTA1 T271N = target: T6, hTA1 T271N (Homo sapiens, UniProt Q96RJ0, T271N); assay: GloSensor cAMP accumulation assay, T271N mutant; details: for Emax values, Mean: β-PEA = 100; for Normalized Luminescence Counts for Concentration Response Curves: log[Agonist], single replicates
T6 construct: expressed in transfected cells; host or cells: HEK293T
T6 sequence (Q96RJ0 1-339 T271N): T1 sequence (Q96RJ0 1-339 W264F) with F264W, T271N

[2] = W246F mutant (so in the source), β-PEA = 100, each line an independent experiment, 3 replicates
[3] = Cryo EM Construct minus WT average
[4] = Cryo EM Construct, mean of each independent experiment (3 replicates)
[5] = C13S, Mean of fit per experiment
[6] = R83H mutant, each line an independent experiment, 3 replicates
[7] = hTA1 C5S, β-PEA = 100, mean of 3 replicates, one line per independent experiment
[8] = T271N mutant, Figure 5B, each row one independent experiment (3 replicates)

T2 sequence (Q96RJ0 with tags, fused parts or gaps F112W): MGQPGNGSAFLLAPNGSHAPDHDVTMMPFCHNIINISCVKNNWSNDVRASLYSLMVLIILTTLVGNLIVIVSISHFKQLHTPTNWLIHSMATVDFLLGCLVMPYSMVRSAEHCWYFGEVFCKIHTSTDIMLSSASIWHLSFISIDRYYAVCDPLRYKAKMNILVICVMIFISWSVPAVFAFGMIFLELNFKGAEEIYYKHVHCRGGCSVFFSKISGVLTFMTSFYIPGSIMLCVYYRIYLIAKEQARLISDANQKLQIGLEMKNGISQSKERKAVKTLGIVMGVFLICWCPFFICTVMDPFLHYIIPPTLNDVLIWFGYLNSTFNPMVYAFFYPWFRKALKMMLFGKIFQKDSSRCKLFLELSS

## CCc1[nH]nc(C(=O)Nc2ccc([C@H]3CNCCO3)cc2)c1C [ralmitaront]
hTA1 W264F
  ΔEmax values (each mutant value - WT average): -7.264
hTA1 W264F; [2]
  Emax values, Mean: 47.4013
hTA1 W264F; W246F mutant (so in the source), β-PEA = 100, each line an independent experiment, 3 replicates, read-out: Emax values (Mean)
  Emax: 32.8%
hTA1 W264F; W264F, n=2, read-out: Span ± SEM (Emax normalized to β-PEA)
  Emax: 40.1 ± 7.28%
[1]; [3]
  ΔEmax values (each mutant value - WT average), Mean: 72.2357 and 63.0743
  ΔpEC50 values (each mutant value - WT average), Mean: -1.146 and -1.03
[1]; [4]
  Emax values, Mean: -1.146 and -1.03
[1]; CryoEM Construct
  Normalized Luminescence Counts (N=2): 105.279 and 102.248 and 77.3142 and 99.3117
[1]; CryoEM Construct, n=2, read-out: Span ± SEM (Emax normalized to β-PEA)
  Emax: 107 ± 3.32%
hTA1 C13S; C13S
  ΔpEC50 values (each mutant value - WT average): -0.1563 and -0.05083
hTA1 C13S; [5]
  Emax values: 28.9629
hTA1 C13S; C13S, Mean of fit per experiment, read-out: Emax values
  Emax: 23.8%
hTA1 C13S; C13S, n=2, read-out: Span ± SEM (Emax normalized to β-PEA)
  Emax: 26.4 ± 2.6%
hTA1 C13S; M = -5
  C13S - Normalized Luminescence Counts (N=2): 24.7419 and 34.2578 and 19.4511 and 28.8102 and 35.1294 and 22.0805
hTA1 R83H; R83H mutant minus WT average
  ΔEmax values (each mutant value - WT average): -30.9711
hTA1 R83H; [6]
  Emax values, Mean: 9.143 and -4.118
hTA1 R83H; R83H, n=2, read-out: Span ± SEM (Emax normalized to β-PEA)
  Emax: 2.51 ± 6.63%
hTA1 C5S; C5S, n=2, read-out: Span ± SEM (Emax normalized to β-PEA)
  Emax: 53 ± 3.33%
hTA1 C5S
  ΔEmax values (each mutant value - WT average), Mean: 16.2371 and 9.571
  ΔpEC50 values (each mutant value - WT average), Mean: -0.2888 and -0.07449
hTA1 C5S; [7]
  Emax values, Mean: 49.6851
hTA1 C5S; hTA1 C5S, β-PEA = 100, mean of 3 replicates, one line per independent experiment, read-out: Emax values, Mean
  Emax: 56.4%
hTA1 C5S; M = -5
  C5S - Normalized Luminescence Counts (N=2): 56.5093 and 57.6833 and 45.4685 and 47.3256 and 58.0276 and 41.5948
hTA1 C5S; M = -5.522
  C5S - Normalized Luminescence Counts (N=2): 55.6739 and 48.0198 and 44.2267 and 42.3543 and 55.8182 and 41.3187
hTA1 C5S; M = -6
  C5S - Normalized Luminescence Counts (N=2): 54.1385 and 48.494 and 48.3811 and 37.8664 and 46.5661 and 38.2116
hTA1 C5S; M = -6.522
  C5S - Normalized Luminescence Counts (N=2): 36.3243 and 27.5639 and 26.277 and 37.3831 and 32.0666 and 36.4855
hTA1 C5S; M = -7
  C5S - Normalized Luminescence Counts (N=2): 17.0199 and 14.6491 and 16.7715 and 16.6005 and 20.1908 and 19.0861
hTA1 T271N; T271N mutant minus WT average, Figure 5B
  ΔpEC50 values (each mutant value - WT average), Mean: 0.04727 and -0.1115
hTA1 T271N; [8]
  Emax values, Mean: 121.192 and 53.6921
hTA1 T271N; T271N, n=2, read-out: Span ± SEM (Emax normalized to β-PEA)
  Emax: 87.4 ± 33.8%
hTA1 T271N; T271N, relative to β-PEA, read-out: Emax
  Emax: 87.4%

## NCCc1ccccc1 [β-PEA, β-phenethylamine]
hTA1 W264F
  ΔEmax values (each mutant value - WT average): 0
hTA1 W264F; W246F mutant (so in the source), each line an independent experiment, 3 replicates
  pEC50 values, Mean: 5.329 and 5.8775
hTA1 W264F; [2]
  Emax values, Mean: 100
hTA1 W264F; W264F, n=2
  Span ± SEM (Emax normalized to β-PEA): 100 ± 4.75
  pEC50 ± SEM: 5.6 ± 0.06
hTA1 W264F; W264F, n=2, read-out: EC50
  EC50: 2490 nM
[1]; [3]
  ΔEmax values (each mutant value - WT average), Mean: 0
[1]; [4]
  Emax values, Mean: 0.8322
  pEC50 values, Mean: 7.553 and 7.926
[1]; CryoEM Construct
  Normalized Luminescence Counts (N=2): 99.4824 and 93.6783 and 105.677 and 107.109
[1]; CryoEM Construct, n=2
  Span ± SEM (Emax normalized to β-PEA): 100 ± 1.84
  pEC50 ± SEM: 7.75 ± 0.04
[1]; CryoEM Construct, n=2, read-out: EC50
  EC50: 17.4 nM
hTA1 C13S; C13S
  ΔEmax values (each mutant value - WT average): 0
  ΔpEC50 values (each mutant value - WT average): -0.3351 and -0.4017
hTA1 C13S; [5]
  Emax values: 100
hTA1 C13S; C13S, n=2
  Span ± SEM (Emax normalized to β-PEA): 100 ± 2.41
  pEC50 ± SEM: 6.73 ± 0.05
hTA1 C13S; C13S, n=2, read-out: EC50
  EC50: 188 nM
hTA1 C13S; hTA1 C13S, mean of 3 replicates, one line per independent experiment
  pEC50 values, Mean: 6.758 and 6.6918
hTA1 C13S; M = -5
  C13S - Normalized Luminescence Counts (N=2): 99.2705 and 93.6371 and 125.268 and 108.514 and 91.163 and 111.602
hTA1 C13S; M = -5.522
  C13S - Normalized Luminescence Counts (N=2): 84.5018 and 89.7165 and 90.3636 and 93.2337 and 75.9363 and 100.338
hTA1 C13S; M = -6
  C13S - Normalized Luminescence Counts (N=2): 78.7162 and 86.7856 and 86.6715 and 80.2383 and 65.7078 and 88.5033
hTA1 C13S; M = -6.522
  C13S - Normalized Luminescence Counts (N=2): 64.3281 and 49.293 and 64.0617 and 65.0295 and 54.7831 and 70.7417
hTA1 R83H; R83H mutant minus WT average
  ΔEmax values (each mutant value - WT average): 0
  ΔpEC50 values (each mutant value - WT average): -1.391 and -1.424
hTA1 R83H; [6]
  pEC50 values, Mean: 5.702 and 5.67
  Emax values, Mean: 100
hTA1 R83H; R83H, n=2
  Span ± SEM (Emax normalized to β-PEA): 100 ± 5.46
  pEC50 ± SEM: 5.69 ± 0.07
hTA1 R83H; R83H, n=2, read-out: EC50
  EC50: 2060 nM
hTA1 C5S; C5S, n=2
  Span ± SEM (Emax normalized to β-PEA): 100 ± 2.22
  pEC50 ± SEM: 7.04 ± 0.05
hTA1 C5S; C5S, n=2, read-out: EC50
  EC50: 90.7 nM
hTA1 C5S
  ΔEmax values (each mutant value - WT average), Mean: 0
  ΔpEC50 values (each mutant value - WT average), Mean: 0.0587 and -0.1606
hTA1 C5S; hTA1 C5S, mean of 3 replicates, one line per independent experiment
  pEC50 values, Mean: 7.152 and 6.9329
hTA1 C5S; [7]
  Emax values, Mean: 100
hTA1 C5S; M = -5
  C5S - Normalized Luminescence Counts (N=2): 105.865 and 101.779 and 112.458 and 98.7643 and 96.9001 and 118.028
hTA1 C5S; M = -5.522
  C5S - Normalized Luminescence Counts (N=2): 88.1188 and 112.932 and 94.5762 and 114.438 and 73.9771 and 93.1716
hTA1 C5S; M = -6
  C5S - Normalized Luminescence Counts (N=2): 83.9419 and 90.8734 and 98.6952 and 79.8459 and 79.6388
hTA1 C5S; M = -6.522
  C5S - Normalized Luminescence Counts (N=2): 76.5362 and 74.7073 and 70.3723 and 75.427 and 66.8654 and 70.3867
hTA1 C5S; M = -7
  C5S - Normalized Luminescence Counts (N=2): 61.9506 and 59.2638 and 58.7445 and 43.9424 and 45.3233 and 47.3256
hTA1 C5S; M = -8.522
  C5S - Normalized Luminescence Counts (N=2): 3.721 and 3.676 and 4.421 and 4.379 and 2.308 and 3.965
hTA1 T271N; [8]
  pEC50 values, Mean: 6.643 and 6.211
  Emax values, Mean: 100
hTA1 T271N; T271N, M -7
  Normalized Luminescence Counts for Concentration Response Curves: 26.2249 and 22.04 and 25.7454 and 13.723 and 18.7522 and 17.914
hTA1 T271N; T271N, M -7.522
  Normalized Luminescence Counts for Concentration Response Curves: 13.7138 and 6.913 and 9.921 and 7.175 and 4.66 and 5.236
hTA1 T271N; T271N, M -8
  Normalized Luminescence Counts for Concentration Response Curves: 4.385 and 5.17 and 5.257 and 2.984 (2×) and 1.569
hTA1 T271N; T271N, M -8.522
  Normalized Luminescence Counts for Concentration Response Curves: 2.467 and 1.9 and 1.508 and 0.2596 and -0.631 and 0.5215
hTA1 T271N; T271N, M -9
  Normalized Luminescence Counts for Concentration Response Curves: 0.4181 and 0.5052 and 1.246 and -0.2643
hTA1 T271N; T271N, n=2
  Span ± SEM (Emax normalized to β-PEA): 100 ± 3.3
  pEC50 ± SEM: 6.43 ± 0.06
hTA1 T271N; T271N, n=2, read-out: EC50
  EC50: 374 nM
